We go through two molecules from US20220295793A1 (priority 2019, published 2022).

One experiment concerns Phytophthora infestans. It counts as in vivo. The following applies: tomatoes, preventive spray, evaluated 3 days after inoculation.
The subject of the next experiment is cucumber downy mildew. The following applies: R. Zhang, J. Pesticide Sci., vol. 39, no. 1, 2014, pages 43-47; cited from earlier work.

Where two headings read alike, the source gives them in different places.

Take `CS(=O)(=O)Oc1cccc(Cl)c1C1CC(c2csc(C3CCN(C(=O)Cn4nc(C(F)F)cc4C(F)F)CC3)n2)=NO1` (racemic) [(A) fluoxapiprolin, 2-{(5RS)-3-[2-(1-{[3,5-bis(difluoromethyl)-1H-pyrazol-1-yl]acetyl}-4-piperidyl)thiazol-4-yl]-4,5-dihydroisoxazol-5-yl}-3-chlorophenyl methanesulfonate]: the “Efficacy in % found” value in the experiment on Phytophthora infestans (0.02 ppm a.i.) worked out at 54%; in the experiment with Phytophthora infestans (0.04 ppm a.i.) it was 79%.

Take `COc1c(F)c(F)c(C(=O)NCc2ncc(C(F)(F)F)cc2Cl)c(F)c1F` [(B) fluopimomide, N-{[3-chloro-5-(trifluoromethyl)-2-pyridyl]methyl}-2,3,5,6-tetrafluoro-4-methoxybenzamide]: the “Efficacy in % found” value in the experiment with Phytophthora infestans (2.5 ppm a.i.), in the experiment with Phytophthora infestans (5 ppm a.i.) and in the experiment on Phytophthora infestans (10 ppm a.i.) was 0% each time. The “controlling cucumber downy mildew” value with cucumber downy mildew was “highly effective”.
